In patent publication US10125134B2 (Mirati Therapeutics, Inc., priority 2016, dated 2018):
Where two headings read alike, the source gives them in different places.

Key:
[1] = target: KRas G12C (Homo sapiens, UniProt P01116, C118S/C51S/C80L/G12C); assay: KRas G12C Modification Assay (LCMS detection of covalent adduct); type: binding; conditions: normalized percent of control; tested at 5 μM concentration for 3 hours
How it was run: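 Covalent modification was read by reverse-phase LC/MS of intact protein after compound exposure, each reaction stopped at its time point with 25 mM acetic acid. Unmodified-protein signal, taken as percent of total, was normalised to untreated protein and reported as POC.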

[2] = tested on: NCI-H358 cells (express KRas G12C), Phospho-ERK; assay: Cellular inhibition of KRas G12C: Phospho-ERK in NCI-H358 cells; type: cell-based; conditions: Homo sapiens, pERK(Thr202/Tyr204) normalized with GAPDH, NCI-H358 cells, 3 hours, read-out: IC50
How it was run: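 IC50 derived by 4-parameter fit of GAPDH-normalized pERK(Thr202/Tyr204) signal, as percent of DMSO control. Signal came from in-cell immunodetection with infrared secondaries after 3 h compound exposure of KRas G12C NCI-H358 cells at 0.5% DMSO.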

Row | Compound | POC [1] | IC50 ([2]; NCI-H358, 3 h) | IC50 [2]
1 | C=CC(=O)N1CCN(c2nc(O[C@H](C)CN(C)C)nc3c2CCN(c2cccc4ccccc24)C3)CC1 [Example 68, (R)-1-(4-(2-((1-(dimethylamino)propan-2-yl)oxy)-7-(naphthalen-1-yl)-5,6,7,8-tetrahydropyrido[3,4-d]pyrimidin-4-yl)piperazin-1-yl)prop-2-en-1-one] | A (“A”≤25% POC) | > 1000 nM | –
2 | C=CC(=O)N1CCN(c2ncnc3c2CCN(c2cncc4ccccc24)C3)CC1 [Example 69, 1-(4-(7-(isoquinolin-4-yl)-5,6,7,8-tetrahydropyrido[3,4-d]pyrimidin-4-yl)piperazin-1-yl)prop-2-en-1-one] | A (“A”≤25% POC) | – | > 1000 nM
3 | C=CC(=O)N1CCN(c2nc(OC(C)CNC)nc3c2CCN(c2cc(O)cc4ccccc24)C3)CC1 (centres unmarked) [Example 70, 1-(4-(7-(3-hydroxynaphthalen-1-yl)-2-((1-(methylamino)propan-2-yl)oxy)-5,6,7,8-tetrahydropyrido[3,4-d]pyrimidin-4-yl)piperazin-1-yl)prop-2-en-1-one] | C (“C”>50% POC) | > 1000 nM | –
4 | C=CC(=O)N1CCN(c2ncnc3c2CCN(C(CO)c2ccccc2)C3)CC1 (centres unmarked) [Example 71, 1-(4-(7-(2-hydroxy-1-phenylethyl)-5,6,7,8-tetrahydropyrido[3,4-d]pyrimidin-4-yl)piperazin-1-yl)prop-2-en-1-one] | A (“A”≤25% POC) | – | > 1000 nM
5 | C=CC(=O)N1CCN(c2nc(OCC(C)N(C)C)nc3c2CCN(c2cc(O)cc4ccccc24)C3)CC1 (centres unmarked) [Example 73, 1-(4-(2-(2-(dimethylamino)propoxy)-7-(3-hydroxynaphthalen-1-yl)-5,6,7,8-tetrahydropyrido[3,4-d]pyrimidin-4-yl)piperazin-1-yl)prop-2-en-1-one] | C (“C”>50% POC) | > 1000 nM | –
6 | C=CC(=O)N1CCN(c2nc(OCCCN3CCOCC3)nc3c2CCN(c2cc(O)cc4ccccc24)C3)CC1 [Example 74, 1-(4-(7-(3-hydroxynaphthalen-1-yl)-2-(3-morpholinopropoxy)-5,6,7,8-tetrahydropyrido[3,4-d]pyrimidin-4-yl)piperazin-1-yl)prop-2-en-1-one] | C (“C”>50% POC) | 0.1 to 1000 nM | –

Second part, led by results:

Row | POC [1] | Compound | IC50 ([2]; NCI-H358, 3 h) | IC50 [2]
7 | C (“C”>50% POC) | C=CC(=O)N1CCN(c2nc(O[C@H](C)CN3CC[C@H](O)C3)nc3c2CCN(c2cc(O)cc4ccccc24)C3)CC1 [Example 65, 1-(4-(7-(3-hydroxynaphthalen-1-yl)-2-(((R)-1-((S)-3-hydroxypyrrolidin-1-yl)propan-2-yl)oxy)-5,6,7,8-tetrahydropyrido[3,4-d]pyrimidin-4-yl)piperazin-1-yl)prop-2-en-1-one] | > 1000 nM | –
8 | C (“C”>50% POC) | C=CC(=O)N1CCN(c2nc(O[C@H]3CCCN(C)C3)nc3c2CCN(c2cc(O)cc4ccccc24)C3)CC1 [Example 66, (S)-1-(4-(7-(3-hydroxynaphthalen-1-yl)-2-((1-methylpiperidin-3-yl)oxy)-5,6,7,8-tetrahydropyrido[3,4-d]pyrimidin-4-yl)piperazin-1-yl)prop-2-en-1-one] | > 1000 nM | –
9 | C (“C”>50% POC) | C=CC(=O)N1CCN(c2nc(O[C@@H]3CCCN(C)C3)nc3c2CCN(c2cc(O)cc4ccccc24)C3)CC1 [Example 67, (R)-1-(4-(7-(3-hydroxynaphthalen-1-yl)-2-((1-methylpiperidin-3-yl)oxy)-5,6,7,8-tetrahydropyrido[3,4-d]pyrimidin-4-yl)piperazin-1-yl)prop-2-en-1-one] | 0.1 to 1000 nM | –
10 | C (“C”>50% POC) | C=CC(=O)N1CCN(c2nc(OCC3CCCN(C)C3)nc3c2CCN(c2cc(O)cc4ccccc24)C3)CC1 (centres unmarked) [Example 72, 1-(4-(7-(3-hydroxynaphthalen-1-yl)-2-((1-methylpiperidin-3-yl)methoxy)-5,6,7,8-tetrahydropyrido[3,4-d]pyrimidin-4-yl)piperazin-1-yl)prop-2-en-1-one] | 0.1 to 1000 nM | –
